Laboratory results taken from patent US20250361230A1, “LATS Inhibitors and Uses Thereof” (The USA, as Represented by the Secretary, Dept. of Heath …, priority 2022, published 2025).

Target: T1, AKT Kinase-NanoLuc fusion in HEK-293 cells (Homo sapiens, UniProt P31749)
T1 construct: host or cells: HEK-293
Assay: NanoBRET target engagement assay in transfected HEK-293 cells, AKT
Format: cell-based
Conditions: Table 28, NanoBRET, HEK-293 cells; read-out: AKT1 (Cellular) IC50
Source text: The NanoBRET™ assay measures kinase engagement in real time in the context of the intact cell. The assay uses a Kinase-NanoLuc® fusion vector expressing a kinase protein to which a luciferase tag has been added, a cell-permeant fluorescent NanoBRET™ tracer, a NanoLuc® substrate, and an extracellular NanoLuc® inhibitor. Upon expression of the luciferase-tagged kinase, cells will produce a strong BRET signal only in the presence of the NanoBRET™ tracer. The extracellular NanoLuc® inhibitor ensures that the BRET signal observed emanates only from live cells. Because the BRET signal has tight distance constraints, addition of the test compound will decrease the BRET signal if the compound competes with the NanoBRET™ tracer for binding to the kinase domain. Under the appropriate tracer conditions established by the manufacturer, quantitative intracellular affinity and relative potency can then be determined using Mass Action model equations.
HEK-293 cells were purchased from ATCC. FuGENEHD Transfection Reagent, Kinase-NanoLuc® fusion plasmids, Transfection Carrier DNA, NanoBRET™ Tracers and dilution buffer, NanoBRET™ Nano-Glo Substrate, Extracellular NanoLuc® Inhibitor were obtained from Promega.
Assays were conducted following Promega assay protocol with some modifications as described further below. HEK-293 Cells were transiently transfected with Kinase-NanoLuc® Fusion Vector DNA by FuGENE HD Transfection Reagent. Test compounds were delivered into 384 well assay plate by Echo 550 (Labcyte Inc, Sunnyvale, CA). Transfected cells were harvested and mixed with NanoBRET™ Tracer Reagent and dispensed into 384 well plates and incubated at 37° C. in 5% CO2 cell culture incubator for 1 hour. The NanoBRET™ Nano-Glo Substrate plus Extracellular NanoLuc® Inhibitor Solution were added into the wells of the assay plate and incubated for 2-3 minutes at room temperature. The donor emission wavelength (460 nm) and acceptor emission wavelength (600 nm) were measured in the EnVision plate reader. The BRET Ratios were calculated. BRET Ratio=[(Acceptor sample÷Donor sample)−(Acceptor no-tracer control÷Donor no-tracer control)]. The IC50 values of compounds were calculated with Prism GraphPad program.
• 1. Transient Transfection of HEK-293 Cells NanoLuc® Fusion Vector DNA • 1). Cultivate HEK-293 cells (70-80% confluence) appropriately prior to assay. Trypsinize and collect HEK-293 cells. • 2). Prepare lipid: DNA complexes as follows: • a. Prepare a […] solution of DNA in Opti-MEM™ without serum that consists of the following ratios of carrier DNA and DNA encoding NanoLuc® fusion. 9.0 µg/mL of Transfection Carrier DNA, […] of NanoLuc® fusion vector DNA and 1 mL of Opti-MEM™ without phenol red. Mix thoroughly. • b. Add 30 μl of FuGENE HD Transfection Reagent into each milliliter of DNA mixture to form lipid: DNA complex. • c. Mix by inversion 10 times. • d. Incubate at ambient temperature for 20 minutes to allow complexes to form. • 3). In a sterile, conical tube, mix 1 part of lipid: DNA complex with 20 parts of HEK-293 cells in suspension. Mix gently by inversion 5 times. • 4). Dispense cells+lipid: DNA complex into a sterile tissue culture dish and incubate for 22-24 hours. • 2. Addition of Test Compounds (dry plate shooting): Each test compound is delivered from the compound source plate to the wells of 384-well white NBS plate by Echo 550. • 3. Preparation of Cells with NanoBRET™ Tracer Reagent • 1). Remove medium from dish with transfected HEK-293 cells via aspiration, trypsinize and allow cells to dissociate from the dish. • 2). Neutralize trypsin using medium containing serum and centrifuge at 200× g for 5 minutes to pellet the cells. Adjust the cell density to 2×10^5 cells/mL in Opti-MEM™ without phenol red. • 3). Prepare Complete 20× NanoBRET™ Tracer Reagent with Tracer Dilution Buffer. • 4). Dispense one part of Complete 20× NanoBRET™ Tracer Reagent to 20 parts of cells in the tube. Mix gently by inversion 10 times. • 5). […]

T1 sequence (P31749 whole entry, the tested form may be a part): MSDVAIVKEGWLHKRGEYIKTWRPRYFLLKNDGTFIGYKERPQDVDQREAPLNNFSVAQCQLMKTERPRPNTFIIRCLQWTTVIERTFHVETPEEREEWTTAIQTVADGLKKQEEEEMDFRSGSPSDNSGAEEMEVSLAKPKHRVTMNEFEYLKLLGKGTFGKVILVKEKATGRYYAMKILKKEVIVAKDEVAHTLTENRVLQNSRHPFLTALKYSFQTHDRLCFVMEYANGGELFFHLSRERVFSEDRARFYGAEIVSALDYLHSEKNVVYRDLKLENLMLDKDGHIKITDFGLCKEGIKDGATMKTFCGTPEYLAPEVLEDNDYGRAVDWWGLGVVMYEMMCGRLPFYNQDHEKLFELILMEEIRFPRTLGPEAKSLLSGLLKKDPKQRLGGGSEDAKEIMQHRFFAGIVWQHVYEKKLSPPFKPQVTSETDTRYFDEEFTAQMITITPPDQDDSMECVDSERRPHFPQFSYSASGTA

| SMILES | IC50 |
| --- | --- |
| C[C@@H]1CN(CC(N)=O)C[C@H](C)[C@@]1(O)c1c(F)cc(-c2ccnc3[nH]cc(F)c23)cc1F [Compound 88, 2-((3R,4s,5S)-4-(2,6-difluoro-4-(3-fluoro-1H-pyrrolo[2,3-b]pyridin-4-yl)phenyl)-4-hydroxy-3,5-dimethylpiperidin-1-yl)acetamide] | > 30 µM |
| C[C@@H]1CN(C2CCNCC2)C[C@H](C)[C@@]1(O)c1c(F)cc(-c2ccnc3[nH]cc(F)c23)cc1F [Compound 90, (3R,4s,5S)-4-(2,6-difluoro-4-(3-fluoro-1H-pyrrolo[2,3-b]pyridin-4-yl)phenyl)-3,5-dimethyl-[1,4′-bipiperidin]-4-ol] | 32.3 µM |
| OC1(c2ccc(-c3ccnc4[nH]cc(F)c34)cc2)CCNCC1 [Compound 110, 4-(4-(3-fluoro-1H-pyrrolo[2,3-b]pyridin-4-yl)phenyl)piperidin-4-ol] | 13.3 µM |
| OC1(c2ccc(-c3ccnc4[nH]ccc34)cc2)CCNCC1 [Compound 111, 4-(4-(1H-pyrrolo[2,3-b]pyridin-4-yl)phenyl)piperidin-4-ol] | > 50 µM |
| Cc1cc(-c2ccnc3[nH]cc(F)c23)cc(F)c1C1(O)CC2(CN(C3COC3)C2)C1 [Compound 139, 6-(2-fluoro-4-(3-fluoro-1H-pyrrolo[2,3-b]pyridin-4-yl)-6-methylphenyl)-2-(oxetan-3-yl)-2-azaspiro[3.3]heptan-6-ol] | > 30 µM |
| O=C([C@H]1CCCN1)N1CCC(O)(c2ccc(-c3ccnc4[nH]cc(F)c34)cc2)CC1 [Compound 142] | 39.8 µM |
| Fc1c[nH]c2nccc(-c3ccc(C4CCNCC4)cc3)c12 [Compound 169, 3-fluoro-4-(4-(piperidin-4-yl)phenyl)-1H-pyrrolo[2,3-b]pyridine] | 13.3 µM |
| Cc1cc(-c2ccnc3[nH]ccc23)ccc1C1CCNCC1 [Compound 177, 4-(3-methyl-4-(piperidin-4-yl)phenyl)-1H-pyrrolo[2,3-b]pyridine] | 32 µM |
| c1cc(-c2ccc(C3CC4CCC(C3)N4)cc2)c2cc[nH]c2n1 (centres unmarked) [Compound 184, 4-(4-(8-azabicyclo[3.2.1]octan-3-yl)phenyl)-1H-pyrrolo[2,3-b]pyridine] | 27.4 µM |
| CC1CC(c2ccc(-c3ccnc4[nH]ccc34)cc2)CC(C)N1 (centres unmarked) [Compound 187, 4-(4-(2,6-dimethylpiperidin-4-yl)phenyl)-1H-pyrrolo[2,3-b]pyridine] | > 50 µM |
| CC1(c2ccc(-c3ccnc4[nH]ccc34)cc2)CCNCC1 [Compound 201, 4-(4-(4-methylpiperidin-4-yl)phenyl)-1H-pyrrolo[2,3-b]pyridine] | 7.51 µM |
| NCc1ccc(-c2ccnc3[nH]cc(-c4ccccc4)c23)cc1-c1ccccc1 [Compound 219, (5-(3-phenyl-1H-pyrrolo[2,3-b]pyridin-4-yl)-[1,1′-biphenyl]-2-yl)methanamine] | > 50 µM |
| c1cc(-c2ccc3c(c2)CCNC3)c2cc[nH]c2n1 [Compound 267, 6-(1H-pyrrolo[2,3-b]pyridin-4-yl)-1,2,3,4-tetrahydroiso-quinoline] | 17.3 µM |
| c1cc(-c2ccc(C3CCCCN3)cc2)c2cc[nH]c2n1 (centres unmarked) [Compound 271, 4-(4-(piperidin-2-yl)phenyl)-1H-pyrrolo[2,3-b]pyridine] | 14.5 µM |
| NCc1ccc(-c2ccnc3[nH]ccc23)cc1 [Compound 287, (4-(1H-pyrrolo[2,3-b]pyridin-4-yl)phenyl) methanamine] | > 50 µM |
| Cc1cc(-c2ccnc3[nH]cc(F)c23)cc(F)c1[C@@]1(O)[C@H](C)CN(C)C[C@@H]1C [Compound 304, (3S,4s,5R)-4-(2-fluoro-4-(3-fluoro-1H-pyrrolo[2,3-b]pyridin-4-yl)-6-methylphenyl)-1,3,5-trimethylpiperidin-4-ol] | 26 µM |
| Cc1cc(-c2ccnc3[nH]cc(F)c23)cc(F)c1[C@@]1(O)[C@H](C)CN(C(C)C)C[C@@H]1C [Compound 305, (3S,4s,5R)-4-(2-fluoro-4-(3-fluoro-1H-pyrrolo[2,3-b]pyridin-4-yl)-6-methylphenyl)-1-isopropyl-3,5-dimethylpiperidin-4-ol] | 29.4 µM |
| COC(=O)c1c[nH]c2nccc(-c3cc(C)c([C@@]4(O)[C@H](C)CN(C5CCS(=O)(=O)CC5)C[C@@H]4C)c(F)c3)c12 [Compound 309, methyl 4-(4-((3S,4s,5R)-1-(1,1-dioxidotetrahydro-2H-thiopyran-4-yl)-4-hydroxy-3,5-dimethylpiperidin-4-yl)-3-fluoro-5-methylphenyl)-1H-pyrrolo[2,3-b]pyridine-3-carboxylate] | 39.9 µM |
| COC(=O)c1c[nH]c2nccc(-c3cc(C)c([C@@]4(O)[C@H](C)CN(C(=O)CN)C[C@@H]4C)c(F)c3)c12 [Compound 310, methyl 4-(3-fluoro-4-((3S,4s,5R)-1-glycyl-4-hydroxy-3,5-dimethylpiperidin-4-yl)-5-methylphenyl)-1H-pyrrolo[2,3-b]pyridine-3-carboxylate] | 49.4 µM |

Second part, the molecule after the results:

| IC50 | SMILES |
| --- | --- |
| > 50 µM | Fc1c[nH]c2nccc(-c3ccc(C4CCNCC4)c(Cl)c3)c12 [Compound 172, 4-(3-chloro-4-(piperidin-4-yl)phenyl)-3-fluoro-1H-pyrrolo[2,3-b]pyridine] |
| 73.9 µM | Clc1c[nH]c2nccc(-c3ccc(C4CCNCC4)cc3)c12 [Compound 173, 3-chloro-4-(4-(piperidin-4-yl)phenyl)-1H-pyrrolo[2,3-b]pyridine] |
| 22.6 µM | Cc1cc(-c2ccnc3[nH]cc(F)c23)ccc1CN [Compound 211, (4-(3-fluoro-1H-pyrrolo[2,3-b]pyridin-4-yl)-2-methylphenyl) methanamine] |
| > 50 µM | COC(=O)c1c[nH]c2nccc(-c3ccc(CN)cc3)c12 [Compound 223, methyl 4-(4-(aminomethyl)phenyl)-1H-pyrrolo[2,3-b]pyridine-3-carboxylate] |
| 0.752 µM | Cc1cccc(-c2c[nH]c3nccc(-c4ccc(CN)cc4)c23)c1 [Compound 230, (4-(3-(m-tolyl)-1H-pyrrolo[2,3-b]pyridin-4-yl)phenyl) methanamine] |
| 9.53 µM | CC(C)(N)c1ccc(-c2ccnc3[nH]cc(F)c23)cc1 [Compound 238, 2-(4-(3-fluoro-1H-pyrrolo[2,3-b]pyridin-4-yl)phenyl)propan-2-amine] |
| 3.45 µM | NCc1ccc(-c2ccnc3[nH]cc(-c4cccnc4)c23)cc1 [Compound 245, (4-(3-(pyridin-3-yl)-1H-pyrrolo[2,3-b]pyridin-4-yl)phenyl) methanamine] |
| 0.338 µM | NCc1ccc(-c2ccnc3[nH]cc(-c4ccccc4)c23)cc1 [Compound 253, (4-(3-phenyl-1H-pyrrolo[2,3-b]pyridin-4-yl)phenyl) methanamine] |
| 3.91 µM | Cc1cc(-c2ccnc3[nH]cc(Cl)c23)ccc1CN [Compound 254, (4-(3-chloro-1H-pyrrolo[2,3-b]pyridin-4-yl)-2-methylphenyl) methanamine] |
| > 50 µM | Cc1cc(-c2ccnc3[nH]ccc23)ccc1CN [Compound 266, (2-methyl-4-(1H-pyrrolo[2,3-b]pyridin-4-yl)phenyl) methanamine] |
| 2.06 µM | NCc1ccc(-c2ccnc3[nH]cc(F)c23)cc1 [Compound 275, (4-(3-fluoro-1H-pyrrolo[2,3-b]pyridin-4-yl)phenyl) methanamine] |
| 4.14 µM | NCc1ccc(-c2ccnc3[nH]cc(Cl)c23)cc1 [Compound 276, (4-(3-chloro-1H-pyrrolo[2,3-b]pyridin-4-yl)phenyl) methanamine] |
| > 50 µM | NCc1ccc(-c2ccnc3[nH]ccc23)cc1C(F)(F)F [Compound 284, (4-(1H-pyrrolo[2,3-b]pyridin-4-yl)-2-(trifluoromethyl)phenyl) methanamine] |
